Read-outs that look alike come from different tables or passages of the source.
What was measured:
Format in all cases: in vivo
corn (Zea mays) = experiment: Test A postemergence; conditions: Zea mays, post-emergence, 240 h, 125 g ai/ha, visual injury after approximately 10 d
Method in brief: (§1)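 Preemergence soil spray on seeded pots or post-emergence spray on 1–2 leaf plants, in loam–sand blend. Greenhouse ~10 d. Visual rating 0–100 against untreated plants.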

[1] = tested on: Galium (catchweed bedstraw, Galium aparine); experiment: Test A postemergence; conditions: Galium, post-emergence, 240 h, 125 g ai/ha, visual injury after approximately 10 d, read-out: Plant response rating, Galium
Method in brief: as §1

Kochia (Kochia scoparia) [2] = experiment: Test A postemergence; conditions: Bassia scoparia, post-emergence, 240 h, 125 g ai/ha, visual injury after approximately 10 d, read-out: Plant response rating, Kochia
Method in brief: as §1

[3] = tested on: ryegrass, Italian (Italian ryegrass, Lolium multiflorum); experiment: Test A postemergence; conditions: Lolium multiflorum, post-emergence, 240 h, 125 g ai/ha, visual injury after approximately 10 d, read-out: Plant response rating, Ryegrass, Italian
Method in brief: as §1

[4] = tested on: ragweed (common ragweed, Ambrosia elatior); experiment: Test A postemergence; conditions: Ambrosia artemisiifolia, post-emergence, 240 h, 125 g ai/ha, visual injury after approximately 10 d, read-out: Plant response rating, Ragweed
Method in brief: as §1

[5] = tested on: giant foxtail (Setaria faberii); experiment: Test A postemergence; conditions: Setaria faberi, post-emergence, 240 h, 125 g ai/ha, visual injury after approximately 10 d, read-out: Plant response rating, Foxtail, Giant
Method in brief: as §1

[6] = tested on: blackgrass (Alopecurus myosuroides); experiment: Test A postemergence; conditions: Alopecurus myosuroides, post-emergence, 240 h, 125 g ai/ha, visual injury after approximately 10 d, read-out: Plant response rating, Blackgrass
Method in brief: as §1

[7] = tested on: wheat (Triticum aestivum); experiment: Test A postemergence; conditions: Triticum aestivum, post-emergence, 240 h, 125 g ai/ha, visual injury after approximately 10 d, read-out: Plant response rating, Wheat
Method in brief: as §1

[8] = tested on: pigweed (Amaranthus retroflexus); experiment: Test A postemergence; conditions: Amaranthus retroflexus, post-emergence, 240 h, 125 g ai/ha, visual injury after approximately 10 d, read-out: Plant response rating, Pigweed
Method in brief: as §1

[9] = tested on: barnyardgrass (Echinochloa crus-galli); experiment: Test A postemergence; conditions: Echinochloa crus-galli, post-emergence, 240 h, 125 g ai/ha, visual injury after approximately 10 d, read-out: Plant response rating, Barnyardgrass
Method in brief: as §1

Kochia (Kochia scoparia) [10] = experiment: Test A preemergence; conditions: Bassia scoparia, pre-emergence, 240 h; for pest or weed control at 125 g/ha: 125 g ai/ha, 0 to 100 scale where 0 is no effect and 100 is complete control; for pest or weed control at 500 g/ha: 500 g ai/ha
Method in brief: as §1

[11] = tested on: ryegrass, Italian (Italian ryegrass, Lolium multiflorum); experiment: Test A preemergence; conditions: Lolium multiflorum, pre-emergence, 240 h; for pest or weed control at 125 g/ha: 125 g ai/ha, 0 to 100 scale where 0 is no effect and 100 is complete control; for pest or weed control at 500 g/ha: 500 g ai/ha
Method in brief: as §1

[12] = tested on: ragweed (common ragweed, Ambrosia elatior); experiment: Test A preemergence; conditions: Ambrosia artemisiifolia, pre-emergence, 240 h; for pest or weed control at 125 g/ha: 125 g ai/ha, 0 to 100 scale where 0 is no effect and 100 is complete control; for pest or weed control at 500 g/ha: 500 g ai/ha
Method in brief: as §1

[13] = tested on: giant foxtail (Setaria faberii); experiment: Test A preemergence; conditions: Setaria faberi, pre-emergence, 240 h; for pest or weed control at 125 g/ha: 125 g ai/ha, 0 to 100 scale where 0 is no effect and 100 is complete control; for pest or weed control at 500 g/ha: 500 g ai/ha
Method in brief: as §1

[14] = tested on: pigweed (Amaranthus retroflexus); experiment: Test A preemergence; conditions: Amaranthus retroflexus, pre-emergence, 240 h; for pest or weed control at 125 g/ha: 125 g ai/ha, 0 to 100 scale where 0 is no effect and 100 is complete control; for pest or weed control at 500 g/ha: 500 g ai/ha
[15] = tested on: barnyardgrass (Echinochloa crus-galli); experiment: Test A preemergence; conditions: Echinochloa crus-galli, pre-emergence, 240 h; for pest or weed control at 125 g/ha: 125 g ai/ha, 0 to 100 scale where 0 is no effect and 100 is complete control; for pest or weed control at 500 g/ha: 500 g ai/ha
Method in brief: as §1

[16] = Postemergence, 0 to 100 scale where 0 is no effect and 100 is complete control
[17] = postemergence, 0 to 100 scale (0 no effect, 100 complete control)

## CN1CC[C@H](c2cccc(Cl)c2)[C@@H](C(=O)Nc2ccccc2S(C)(=O)=O)C1=O [Compound 923]
Corn (Zea mays); [16]
  Corn plant response rating (crop injury, 0 = no effect, 100 = complete kill) at 125 g/ha: 0%
[1]; [16]
  pest or weed control at 125 g/ha: 0%
Kochia (Kochia scoparia) [2]; [16]
  pest or weed control at 125 g/ha: 0%
[3]; [16]
  pest or weed control at 125 g/ha: 0%
[4]; [16]
  pest or weed control at 125 g/ha: 0%
[5]; [16]
  pest or weed control at 125 g/ha: 0%
[6]; [16]
  pest or weed control at 125 g/ha: 0%
[7]; [16]
  plant injury at 125 g/ha: 0%
[8]; [16]
  pest or weed control at 125 g/ha: 0%
[9]; [16]
  pest or weed control at 125 g/ha: 0%
Kochia (Kochia scoparia) [10]; preemergence, read-out: Kochia plant response rating
  pest or weed control at 125 g/ha: 0%
Kochia (Kochia scoparia) [10]; Preemergence, visual injury vs untreated controls after approximately 10 d, read-out: Kochia plant response rating (0 to 100 scale where 0 is no effect and 100 is complete control)
  pest or weed control at 500 g/ha: 0%
[11]; preemergence, read-out: Ryegrass, Italian plant response rating
  pest or weed control at 125 g/ha: 0%
[11]; Preemergence, visual injury vs untreated controls after approximately 10 d, read-out: Ryegrass, Italian plant response rating (0 to 100 scale where 0 is no effect and 100 is complete control)
  pest or weed control at 500 g/ha: 0%
[12]; preemergence, read-out: Ragweed plant response rating
  pest or weed control at 125 g/ha: 0%
[12]; Preemergence, visual injury vs untreated controls after approximately 10 d, read-out: Ragweed plant response rating (0 to 100 scale where 0 is no effect and 100 is complete control)
  pest or weed control at 500 g/ha: 0%
[13]; preemergence, read-out: Foxtail, Giant plant response rating
  pest or weed control at 125 g/ha: 0%
[13]; Preemergence, visual injury vs untreated controls after approximately 10 d, read-out: Foxtail, Giant plant response rating (0 to 100 scale where 0 is no effect and 100 is complete control)
  pest or weed control at 500 g/ha: 70%
[14]; preemergence, read-out: Pigweed plant response rating
  pest or weed control at 125 g/ha: 0%
[14]; Preemergence, visual injury vs untreated controls after approximately 10 d, read-out: Pigweed plant response rating (0 to 100 scale where 0 is no effect and 100 is complete control)
  pest or weed control at 500 g/ha: 0%
[15]; preemergence, read-out: Barnyardgrass plant response rating
  pest or weed control at 125 g/ha: 0%
[15]; Preemergence, visual injury vs untreated controls after approximately 10 d, read-out: Barnyardgrass plant response rating (0 to 100 scale where 0 is no effect and 100 is complete control)
  pest or weed control at 500 g/ha: 70%

## O=C1NC[C@H](c2cc(F)c(F)c(F)c2)[C@H]1C(=O)Nc1ccc(F)c(F)c1F [Compound 756]
Corn (Zea mays); [17]
  Corn plant response rating (crop injury, 0 = no effect, 100 = complete kill) at 125 g/ha: 50%
[1]; [17]
  pest or weed control at 125 g/ha: 50%
Kochia (Kochia scoparia) [2]; [17]
  pest or weed control at 125 g/ha: 20%
[3]; [17]
  pest or weed control at 125 g/ha: 40%
[4]; [17]
  pest or weed control at 125 g/ha: 20%
[5]; [17]
  pest or weed control at 125 g/ha: 80%
[6]; [17]
  pest or weed control at 125 g/ha: 0%
[7]; [17]
  plant injury at 125 g/ha: 30%
[8]; [17]
  pest or weed control at 125 g/ha: 0%
[9]; [17]
  pest or weed control at 125 g/ha: 90%
Kochia (Kochia scoparia) [10]; preemergence, visual rating after approx. 10 d, read-out: Plant response rating, Kochia
  pest or weed control at 125 g/ha: 70%
Kochia (Kochia scoparia) [10]; preemergence, 0 to 100 scale, 0 = no effect, 100 = complete control, read-out: Plant response rating, Kochia
  pest or weed control at 500 g/ha: 70%
[11]; preemergence, visual rating after approx. 10 d, read-out: Plant response rating, Ryegrass, Italian
  pest or weed control at 125 g/ha: 30%
[11]; preemergence, 0 to 100 scale, 0 = no effect, 100 = complete control, read-out: Plant response rating, Ryegrass, Italian
  pest or weed control at 500 g/ha: 70%
[12]; preemergence, visual rating after approx. 10 d, read-out: Plant response rating, Ragweed
  pest or weed control at 125 g/ha: 0%
[12]; preemergence, 0 to 100 scale, 0 = no effect, 100 = complete control, read-out: Plant response rating, Ragweed
  pest or weed control at 500 g/ha: 30%
[13]; preemergence, visual rating after approx. 10 d, read-out: Plant response rating, Foxtail, Giant
  pest or weed control at 125 g/ha: 100%
[13]; preemergence, 0 to 100 scale, 0 = no effect, 100 = complete control, read-out: Plant response rating, Foxtail, Giant
  pest or weed control at 500 g/ha: 100%
[14]; preemergence, visual rating after approx. 10 d, read-out: Plant response rating, Pigweed
  pest or weed control at 125 g/ha: 40%
[14]; preemergence, 0 to 100 scale, 0 = no effect, 100 = complete control, read-out: Plant response rating, Pigweed
  pest or weed control at 500 g/ha: 70%
[15]; preemergence, visual rating after approx. 10 d, read-out: Plant response rating, Barnyardgrass
  pest or weed control at 125 g/ha: 100%
[15]; preemergence, 0 to 100 scale, 0 = no effect, 100 = complete control, read-out: Plant response rating, Barnyardgrass
  pest or weed control at 500 g/ha: 100%

— patent US12077503B2, “Substituted cyclic amides and their use as herbicides” (FMC CORPORATION, priority 2015, dated 2024)
